Where “and” joins values, the source holds several entries; their conditions need not be identical. Equal entries are not always repeated. ± gives the expanded uncertainty stated by the source.
How the values were obtained:
[1] = mn = molality of the nth substance listed, in mol/kg; details: 298 K, 101.3 kPa, Liquid
[2] = Crystal, Calculated from knudsen effusion weight loss

SMILES | mass density ([1]; m1 = 0.01034) | mass density ([1]; m1 = 0.01092) | mass density ([1]; m1 = 0.01101) | mass density ([1]; m1 = 0.01122) | mass density ([1]; m1 = 0.01187) | mass density ([1]; m1 = 0.01292) | vapor or sublimation pressure ([2]; 373.02 K) | vapor or sublimation pressure ([2]; 374.94 K) | vapor or sublimation pressure ([2]; 378.75 K) | vapor or sublimation pressure ([2]; 380.67 K) | vapor or sublimation pressure ([2]; 382.54 K) | vapor or sublimation pressure ([2]; 384.45 K) | vapor or sublimation pressure ([2]; 386.35 K) | vapor or sublimation pressure ([2]; 388.25 K) | vapor or sublimation pressure ([2]; 390.15 K) | vapor or sublimation pressure ([2]; 392.01 K)
O=c1[nH]cc(C(F)(F)F)c(=O)[nH]1 [5-(trifluoromethyl)uracil] + O | 997.88 ± 0.2 kg/m3 | 997.938 ± 0.2 kg/m3 | 997.946 ± 0.19 kg/m3 | 997.96 ± 0.19 kg/m3 | 998.017 ± 0.19 kg/m3 | 998.089 ± 0.18 kg/m3 |  |  |  |  |  |  |  |  |  | 
O=c1[nH]cc(C(F)(F)F)c(=O)[nH]1 [5-(trifluoromethyl)uracil] |  |  |  |  |  |  | 1.187e-05 ± 6e-07 kPa and 1.168e-05 ± 5.9e-07 kPa | 1.376e-05 ± 7e-07 kPa | 2.012e-05 ± 1e-06 kPa | 2.417e-05 ± 1.2e-06 kPa | 2.882e-05 ± 1.5e-06 kPa | 3.348e-05 ± 1.7e-06 kPa | 3.983e-05 ± 2e-06 kPa | 4.61e-05 ± 2.3e-06 kPa | 5.586e-05 ± 2.8e-06 kPa | 6.401e-05 ± 3.2e-06 kPa and 6.45e-05 ± 3.2e-06 kPa
